Assay results: patent US8609724B2, “Method of treating cancer using dichloroacetate” (priority 2005, dated 2013)
“Also recorded” adds a separate entry of the source.

Assays:
NFAT = NFAT and Kv1.5 confocal imaging; type: cell-based, human; conditions: A549 cells
Description: Imaging was performed using a Zeiss LSM 510 confocal microscope as described. Apoptag apoptosis detection kit (TUNEL stain, Serologicals, Norcross, Ga.) and the proliferating cell nuclear antigen (PCNA) antibody (DAKO, Carpinteria, Calif.) were used as per manufacturer's instructions on both formaldehyde fixed cells and paraffin-embedded tissue sections after antigen retrieval. Nuclear staining was made using 4′,6′-diamidino-2-phenylindole dihydrochloride (DAPI, 300 nM; Molecular Probes) in fixed tissue or cells as previously described Apoalert Annexin V kit (Clontech, Palo Alto, Calif.), cytochrome c antibody (Pharmingen, San Diego, Calif.), Apoptosis inducing factor (Santa Cruz Calif. USA) NFAT and Kv1.5 (Sigma) and mitotracker red (500 nM, Molecular Probes) were used as described by the company instructions. Mitochondrial membrane potential (ΔΨm) was studied in live cancer cultured cells, using tetramethylrhodamine methyl-ester perchlorate (TMRM) (20 nmol/L) for 30 minutes (37° C.) and Hoechst (1.0 umol/L) nuclear staining for 10 minutes (Molecular Probes, Canada).

cancer cells = test: Free cytosolic calcium (fluo-3, confocal); type: cell-based, human; conditions: treated vs control cells

Q: Which results are given for `OO` [H2O2]?
A: Kv1.5 expression (confocal immunostaining) (NFAT): increased Kv1.5 expression; NFAT activation (nuclear localization) (NFAT): blocked the activation of NFAT; free cytosolic calcium concentration (cancer cells): decreases the intracellular Ca++ levels; also recorded: Control cells had more calcium than both DCA and H2O2 treated cells
